Measured values: ChEMBL document CHEMBL1153318, “Design of potent thiophene inhibitors of polo-like kinase 1 with improved solubility and reduced protein binding” (Bioorg Med Chem Lett, 2009)
Converted amounts (≈) assume the structure as drawn.

Key:
[1] = system: A549; test: Antiproliferative activity against human A549 cells after 72 hrs by luminescence-based cell viability assay; type: functional; conditions: A549, 72 h
[2] = system: MX1; test: Antiproliferative activity against human MX1 cells after 72 hrs by luminescence-based cell viability assay; type: functional; conditions: MX1, 72 h
[3] = molecular target: Phosphatidylinositol 4,5-bisphosphate 3-kinase catalytic subunit gamma isoform (Homo sapiens, UniProt P48736); test: Inhibition of human PI3Kgamma
[4] = molecular target: Serine/threonine-protein kinase pim-1 (Homo sapiens, UniProt P11309); test: Inhibition of human PIM1
Serine/threonine-protein kinase pim-1, sequence (P11309 whole entry): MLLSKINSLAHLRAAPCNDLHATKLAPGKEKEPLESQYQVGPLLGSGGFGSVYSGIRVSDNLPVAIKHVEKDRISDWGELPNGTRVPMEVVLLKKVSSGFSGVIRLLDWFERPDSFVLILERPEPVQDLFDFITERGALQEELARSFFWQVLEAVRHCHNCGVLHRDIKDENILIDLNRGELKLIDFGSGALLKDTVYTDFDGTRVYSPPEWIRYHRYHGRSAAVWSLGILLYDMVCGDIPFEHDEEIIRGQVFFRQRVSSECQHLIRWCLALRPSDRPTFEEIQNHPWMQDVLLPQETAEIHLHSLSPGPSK

[5] = molecular target: T1, NUAK family SNF1-like kinase 1 (Homo sapiens, UniProt O60285); test: Inhibition of human Nuak1
T1 sequence (O60285 whole entry): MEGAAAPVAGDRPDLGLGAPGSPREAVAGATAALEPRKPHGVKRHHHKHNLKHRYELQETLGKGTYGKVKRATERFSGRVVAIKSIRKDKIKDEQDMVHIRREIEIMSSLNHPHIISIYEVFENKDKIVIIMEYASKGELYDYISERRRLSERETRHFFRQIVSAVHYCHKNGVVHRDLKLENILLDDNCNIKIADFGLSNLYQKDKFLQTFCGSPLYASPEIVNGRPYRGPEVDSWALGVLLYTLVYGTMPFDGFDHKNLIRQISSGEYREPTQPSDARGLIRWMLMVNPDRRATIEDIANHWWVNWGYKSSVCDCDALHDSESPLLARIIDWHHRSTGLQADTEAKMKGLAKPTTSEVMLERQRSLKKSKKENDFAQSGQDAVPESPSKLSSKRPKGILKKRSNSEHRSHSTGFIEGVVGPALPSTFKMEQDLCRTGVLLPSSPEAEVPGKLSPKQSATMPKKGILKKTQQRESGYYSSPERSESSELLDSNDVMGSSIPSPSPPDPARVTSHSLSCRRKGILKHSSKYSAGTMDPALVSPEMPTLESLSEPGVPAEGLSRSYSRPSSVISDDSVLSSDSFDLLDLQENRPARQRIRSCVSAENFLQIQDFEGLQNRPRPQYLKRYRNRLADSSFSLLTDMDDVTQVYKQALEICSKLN

[6] = molecular target: Vascular endothelial growth factor receptor 2 (Homo sapiens, UniProt P35968); test: Inhibition of human VEGFR2
Vascular endothelial growth factor receptor 2, sequence (P35968 whole entry): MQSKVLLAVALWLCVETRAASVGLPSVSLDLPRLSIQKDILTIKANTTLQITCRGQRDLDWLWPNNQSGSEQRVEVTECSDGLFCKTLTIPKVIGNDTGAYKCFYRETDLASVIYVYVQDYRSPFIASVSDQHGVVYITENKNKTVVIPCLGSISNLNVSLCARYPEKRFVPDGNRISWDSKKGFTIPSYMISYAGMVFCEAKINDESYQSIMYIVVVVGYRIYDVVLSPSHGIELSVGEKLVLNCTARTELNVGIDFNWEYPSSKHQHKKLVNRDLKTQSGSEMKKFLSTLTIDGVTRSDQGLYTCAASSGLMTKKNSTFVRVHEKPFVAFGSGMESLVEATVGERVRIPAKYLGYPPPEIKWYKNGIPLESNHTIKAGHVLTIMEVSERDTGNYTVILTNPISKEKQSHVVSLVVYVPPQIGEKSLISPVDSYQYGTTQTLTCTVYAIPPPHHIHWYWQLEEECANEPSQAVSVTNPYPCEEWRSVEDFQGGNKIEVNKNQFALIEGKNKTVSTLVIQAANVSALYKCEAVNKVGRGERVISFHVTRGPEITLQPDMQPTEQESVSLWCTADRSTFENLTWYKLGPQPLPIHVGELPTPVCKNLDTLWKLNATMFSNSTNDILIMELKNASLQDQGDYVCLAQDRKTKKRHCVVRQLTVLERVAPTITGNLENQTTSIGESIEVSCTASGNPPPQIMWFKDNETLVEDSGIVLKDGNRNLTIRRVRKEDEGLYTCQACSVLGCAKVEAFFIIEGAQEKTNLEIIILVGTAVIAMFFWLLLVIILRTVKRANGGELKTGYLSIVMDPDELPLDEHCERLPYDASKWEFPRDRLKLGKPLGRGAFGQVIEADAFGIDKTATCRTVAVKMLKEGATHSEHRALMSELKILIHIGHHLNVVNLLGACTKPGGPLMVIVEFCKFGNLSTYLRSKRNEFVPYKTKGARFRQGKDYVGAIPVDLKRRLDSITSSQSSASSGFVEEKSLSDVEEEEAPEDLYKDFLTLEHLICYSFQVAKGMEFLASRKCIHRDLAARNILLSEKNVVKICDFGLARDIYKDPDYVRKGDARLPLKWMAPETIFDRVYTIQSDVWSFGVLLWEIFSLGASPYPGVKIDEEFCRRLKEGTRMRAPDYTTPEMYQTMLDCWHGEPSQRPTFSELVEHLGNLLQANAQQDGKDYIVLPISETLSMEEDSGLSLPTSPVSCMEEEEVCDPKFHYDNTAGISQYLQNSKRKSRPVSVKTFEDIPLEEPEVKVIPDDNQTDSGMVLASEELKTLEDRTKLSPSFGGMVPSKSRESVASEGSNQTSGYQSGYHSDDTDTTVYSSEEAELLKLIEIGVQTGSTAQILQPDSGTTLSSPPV

[7] = system: SK-OV-3; test: Antiproliferative activity against human SKOV3 cells after 72 hrs by luminescence-based cell viability assay; type: functional; conditions: SK-OV-3, 72 h
[8] = system: COLO 205; test: Antiproliferative activity against human COLO205 cells after 72 hrs by luminescence-based cell viability assay; type: functional; conditions: COLO 205, 72 h
[9] = molecular target: T2, Phosphatidylinositol 4,5-bisphosphate 3-kinase catalytic subunit delta isoform (Homo sapiens, UniProt O00329); test: Inhibition of human PI3Kdelta
T2 sequence (O00329 whole entry): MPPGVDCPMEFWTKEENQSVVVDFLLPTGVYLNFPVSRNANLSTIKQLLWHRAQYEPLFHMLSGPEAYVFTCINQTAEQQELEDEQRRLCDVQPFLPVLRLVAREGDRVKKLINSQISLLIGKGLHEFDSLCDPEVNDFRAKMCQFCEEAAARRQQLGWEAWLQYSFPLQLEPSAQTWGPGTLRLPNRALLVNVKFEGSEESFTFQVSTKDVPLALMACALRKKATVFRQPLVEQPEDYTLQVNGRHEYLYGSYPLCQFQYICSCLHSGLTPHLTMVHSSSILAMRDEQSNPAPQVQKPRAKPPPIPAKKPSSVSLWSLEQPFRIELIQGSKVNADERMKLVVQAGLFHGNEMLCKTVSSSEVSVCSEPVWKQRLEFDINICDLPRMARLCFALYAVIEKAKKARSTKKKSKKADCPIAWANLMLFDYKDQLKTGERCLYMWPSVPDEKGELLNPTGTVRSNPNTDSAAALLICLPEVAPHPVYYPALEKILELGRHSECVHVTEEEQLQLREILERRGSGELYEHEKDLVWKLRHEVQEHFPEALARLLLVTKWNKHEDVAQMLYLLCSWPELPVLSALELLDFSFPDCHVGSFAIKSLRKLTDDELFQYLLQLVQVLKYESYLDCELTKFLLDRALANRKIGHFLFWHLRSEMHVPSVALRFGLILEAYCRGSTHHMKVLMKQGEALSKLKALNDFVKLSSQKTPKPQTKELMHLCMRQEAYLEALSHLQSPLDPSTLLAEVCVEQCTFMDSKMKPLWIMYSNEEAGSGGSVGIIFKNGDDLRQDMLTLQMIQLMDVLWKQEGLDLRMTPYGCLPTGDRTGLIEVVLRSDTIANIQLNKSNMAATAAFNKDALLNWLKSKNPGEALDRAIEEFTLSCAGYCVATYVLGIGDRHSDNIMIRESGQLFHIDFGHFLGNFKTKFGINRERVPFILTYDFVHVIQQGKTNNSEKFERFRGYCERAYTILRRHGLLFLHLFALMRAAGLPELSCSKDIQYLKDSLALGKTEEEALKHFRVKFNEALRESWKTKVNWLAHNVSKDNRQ

[10] = molecular target: Platelet-derived growth factor receptor beta (Homo sapiens, UniProt P09619); test: Inhibition of human PDGFR1beta
Platelet-derived growth factor receptor beta, sequence (P09619 whole entry): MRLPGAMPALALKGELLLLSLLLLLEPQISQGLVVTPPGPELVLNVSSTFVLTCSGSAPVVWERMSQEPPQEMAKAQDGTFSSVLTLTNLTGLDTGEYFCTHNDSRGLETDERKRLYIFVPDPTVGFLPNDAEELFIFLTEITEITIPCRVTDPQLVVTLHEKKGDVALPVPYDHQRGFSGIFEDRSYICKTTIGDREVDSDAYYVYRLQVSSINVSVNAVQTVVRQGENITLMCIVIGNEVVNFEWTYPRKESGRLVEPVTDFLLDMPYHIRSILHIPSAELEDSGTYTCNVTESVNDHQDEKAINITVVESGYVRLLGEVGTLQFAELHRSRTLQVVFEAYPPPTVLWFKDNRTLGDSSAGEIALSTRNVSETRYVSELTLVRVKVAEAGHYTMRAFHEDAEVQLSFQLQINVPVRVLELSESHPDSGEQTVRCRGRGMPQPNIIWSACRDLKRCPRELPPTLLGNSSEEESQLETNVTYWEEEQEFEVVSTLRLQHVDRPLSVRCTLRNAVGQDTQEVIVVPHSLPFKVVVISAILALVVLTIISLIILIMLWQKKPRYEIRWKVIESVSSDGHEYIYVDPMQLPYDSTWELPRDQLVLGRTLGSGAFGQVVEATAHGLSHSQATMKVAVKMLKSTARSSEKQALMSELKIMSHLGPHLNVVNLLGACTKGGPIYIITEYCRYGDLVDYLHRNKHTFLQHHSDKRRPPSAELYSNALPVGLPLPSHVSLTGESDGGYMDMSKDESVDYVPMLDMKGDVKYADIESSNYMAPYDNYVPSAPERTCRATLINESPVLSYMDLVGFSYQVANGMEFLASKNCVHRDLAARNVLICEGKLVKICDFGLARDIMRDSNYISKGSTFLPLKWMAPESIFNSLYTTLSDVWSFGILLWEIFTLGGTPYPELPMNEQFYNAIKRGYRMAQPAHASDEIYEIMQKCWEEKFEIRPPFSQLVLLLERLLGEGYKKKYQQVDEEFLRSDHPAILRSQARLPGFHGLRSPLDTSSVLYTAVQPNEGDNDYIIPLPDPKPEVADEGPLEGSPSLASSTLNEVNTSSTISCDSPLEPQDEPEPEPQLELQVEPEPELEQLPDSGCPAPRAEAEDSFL

[11] = Solubility in 0.05 M phosphate buffer at 200 uM at pH 7.4 after 15 mins by HPLC; type: physicochemical
[12] = molecular target: Serine/threonine-protein kinase PLK3 (Homo sapiens, UniProt Q9H4B4); test: biochemical
Serine/threonine-protein kinase PLK3, sequence (Q9H4B4 whole entry): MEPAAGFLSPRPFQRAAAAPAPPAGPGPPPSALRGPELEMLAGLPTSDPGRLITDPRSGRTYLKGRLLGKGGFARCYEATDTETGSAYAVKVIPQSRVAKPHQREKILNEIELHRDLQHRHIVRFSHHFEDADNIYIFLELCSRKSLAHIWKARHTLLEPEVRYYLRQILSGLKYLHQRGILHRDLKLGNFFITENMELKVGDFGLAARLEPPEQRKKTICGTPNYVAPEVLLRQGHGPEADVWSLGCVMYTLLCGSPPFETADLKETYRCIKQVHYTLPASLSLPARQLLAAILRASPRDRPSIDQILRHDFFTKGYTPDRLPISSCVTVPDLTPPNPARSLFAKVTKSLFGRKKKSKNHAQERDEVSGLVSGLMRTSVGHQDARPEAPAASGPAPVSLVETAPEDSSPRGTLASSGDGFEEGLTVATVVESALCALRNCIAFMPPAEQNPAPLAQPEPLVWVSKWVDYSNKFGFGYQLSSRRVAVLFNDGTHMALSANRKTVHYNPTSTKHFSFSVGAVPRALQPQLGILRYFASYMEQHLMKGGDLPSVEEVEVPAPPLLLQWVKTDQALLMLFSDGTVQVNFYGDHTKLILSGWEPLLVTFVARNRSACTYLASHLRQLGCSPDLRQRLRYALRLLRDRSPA
Description: Inhibition of full length human PLK3 expressed in baculovirus-infected Trichoplusia ni cells by scintillation proximity assay

[13] = molecular target: T3, Serine/threonine-protein kinase Nek2 (Homo sapiens, UniProt P51955)
T3 sequence (P51955 whole entry): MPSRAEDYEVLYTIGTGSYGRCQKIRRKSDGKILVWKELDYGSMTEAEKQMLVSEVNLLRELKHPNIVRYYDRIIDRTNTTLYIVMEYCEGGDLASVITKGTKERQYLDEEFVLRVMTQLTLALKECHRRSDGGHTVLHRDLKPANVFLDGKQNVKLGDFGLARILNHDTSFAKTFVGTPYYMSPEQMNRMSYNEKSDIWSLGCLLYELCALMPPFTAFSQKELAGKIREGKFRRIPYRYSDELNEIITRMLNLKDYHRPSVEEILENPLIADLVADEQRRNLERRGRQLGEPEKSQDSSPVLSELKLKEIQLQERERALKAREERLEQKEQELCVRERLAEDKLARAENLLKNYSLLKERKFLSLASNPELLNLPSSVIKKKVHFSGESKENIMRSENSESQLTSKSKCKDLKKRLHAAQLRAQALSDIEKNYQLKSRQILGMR

[14] = Protein binding in human plasma at 2000 ng/mL after 6 hrs by equilibrium dialysis method; type: ADME, cell-free; conditions: read-out: PPB (converted)
[15] = system: HT-29; test: Antiproliferative activity against human HT-29 cells after 72 hrs by luminescence-based cell viability assay; type: functional; conditions: HT-29, 72 h
[16] = system: HCT-116; test: cells; conditions: Homo sapiens, HCT-116, 72 h
Description: Antiproliferative activity against human HCT116 cells after 72 hrs by luminescence-based cell viability assay

[17] = molecular target: Serine/threonine-protein kinase PLK1 (Homo sapiens, UniProt P53350); test: biochemical
Serine/threonine-protein kinase PLK1, sequence (P53350 whole entry): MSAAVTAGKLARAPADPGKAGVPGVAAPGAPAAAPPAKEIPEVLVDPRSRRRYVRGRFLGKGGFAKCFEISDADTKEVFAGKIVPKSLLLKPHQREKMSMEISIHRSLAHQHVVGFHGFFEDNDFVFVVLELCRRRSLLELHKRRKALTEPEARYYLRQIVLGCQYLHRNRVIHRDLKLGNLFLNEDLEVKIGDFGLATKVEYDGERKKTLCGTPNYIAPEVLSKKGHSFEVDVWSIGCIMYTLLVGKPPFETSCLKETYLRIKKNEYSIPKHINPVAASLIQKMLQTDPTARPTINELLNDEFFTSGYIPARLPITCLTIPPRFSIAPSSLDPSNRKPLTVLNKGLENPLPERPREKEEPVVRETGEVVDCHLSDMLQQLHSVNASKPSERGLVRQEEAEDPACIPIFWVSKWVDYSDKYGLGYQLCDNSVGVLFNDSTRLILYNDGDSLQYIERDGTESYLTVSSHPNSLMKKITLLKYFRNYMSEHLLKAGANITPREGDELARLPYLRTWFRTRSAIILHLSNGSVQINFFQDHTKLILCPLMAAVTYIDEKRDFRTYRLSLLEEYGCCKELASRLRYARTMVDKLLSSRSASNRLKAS
Description: Inhibition of human PLK1 kinase domain expressed in baculovirus-infected Trichoplusia ni cells by scintillation proximity assay

| solubility at 0.25 h, 200 µM [11] [µM] | IC50 [12] [µM] | fraction unbound at 6 h, 2000 ng/mL [14] | IC50 [16] [µM] | IC50 [17] [µM] | Compound | other results |
| --- | --- | --- | --- | --- | --- | --- |
| 179 (≈ 97.5 µg/mL) | 0.27 | 0.052 | 0.012 | – | CC(Oc1cc(-n2cnc3ccc(OC4CCN(C)CC4)cc32)sc1C(N)=O)c1ccccc1C(F)(F)F (single isomer, unassigned) | IC50 [1]: 0.014 µM; IC50 [2]: 0.01 µM; IC50 [3]: 0.39 µM; IC50 [4]: 0.34 µM; IC50 [5]: 0.84 µM; IC50 [6]: 0.8 µM; IC50 [7]: 0.032 µM; IC50 [8]: 0.005 µM; IC50 [9]: 0.53 µM; IC50 [10]: 0.11 µM; IC50 [13]: 0.025 µM; IC50 [15]: 0.003 µM |
| 161 (≈ 80.3 µg/mL) | – | 0.026 | 0.032 | – | CC(Oc1cc(-n2cnc3ccc(OCCCN(C)C)cc32)sc1C(N)=O)c1ccccc1Cl (single isomer, unassigned) | – |
| 170 (≈ 92 µg/mL) | – | 0.038 | 0.045 | – | C[C@@H](Oc1cc(-n2cnc3ccc(OC[C@H](O)CN4CCCC4)cc32)sc1C(N)=O)c1ccccc1Cl (single isomer, unassigned) | – |
| 104 (≈ 55.2 µg/mL) | – | 0.034 | 0.015 | – | CC(Oc1cc(-n2cnc3ccc(OC4CCNCC4)cc32)sc1C(N)=O)c1ccccc1C(F)(F)F (single isomer, unassigned) | – |
| ≥ 200 | – | 0.031 | 0.017 | – | CC(Oc1cc(-n2cnc3ccc(O[C@H]4CCCN(C)CC4)cc32)sc1C(N)=O)c1ccccc1Cl (single isomer, unassigned) | – |
| 200 (≈ 105 µg/mL) | – | 0.02 | 0.013 | – | CC(Oc1cc(-n2cnc3ccc(O[C@@H]4CCCN(C)CC4)cc32)sc1C(N)=O)c1ccccc1Cl (single isomer, unassigned) | – |
| 109 (≈ 60.9 µg/mL) | 0.55 | 0.023 | 0.03 | 0.007 | CC(Oc1cc(-n2cnc3ccc(OCC4CCN(C)CC4)cc32)sc1C(N)=O)c1ccccc1C(F)(F)F (single isomer, unassigned) [GSK-326090A] | – |
| ≥ 190 | 0.63 | 0.085 | 0.011 | – | CC(Oc1cc(-n2cnc3ccc(OC4CCN(C)CC4)cc32)sc1C(N)=O)c1ccccc1Cl (single isomer, unassigned) [GSK-579289A] | IC50 [1]: 0.011 µM; IC50 [2]: 0.009 µM; IC50 [4]: 0.31 µM; IC50 [5]: 2 µM; IC50 [6]: 1.2 µM; IC50 [7]: 0.011 µM; IC50 [8]: 0.005 µM; IC50 [9]: 0.44 µM; IC50 [10]: 0.42 µM; IC50 [13]: 0.021 µM; IC50 [15]: 0.003 µM |
| 15 (≈ 7.32 µg/mL) | 0.061 | – | 0.073 | 0.001 | CC(Oc1cc(-n2cnc3ccc(OC[C@@H](O)CO)cc32)sc1C(N)=O)c1ccccc1Cl (single isomer, unassigned) [GSK-978744A] | – |
| – | 0.044 | – | 0.994 | – | COc1cc2ncn(-c3cc(O[C@@H](C)c4ccccc4Cl)c(C(N)=O)s3)c2cc1OC [GSK-237700A] | – |
| 2 (≈ 0.916 µg/mL) | 0.006 | – | 0.025 | – | COc1cc2ncn(-c3cc(O[C@H](C)c4ccccc4Cl)c(C(N)=O)s3)c2cc1OC [GSK-237701A] | – |
| 1 (≈ 0.461 µg/mL) | 0.041 | 0.005 | 0.476 | 0.003 | COc1ccc2ncn(-c3cc(O[C@H](C)c4ccccc4C(F)(F)F)c(C(N)=O)s3)c2c1 [GSK-317315A] | – |
| – | 0.009 | – | 1.14 | – | COc1cc2ncn(-c3cc(OCc4ccccc4Cl)c(C(N)=O)s3)c2cc1OC [GW852849X] | – |

| Compound | solubility at 0.25 h, 200 µM [11] [µM] | IC50 [12] [µM] | fraction unbound at 6 h, 2000 ng/mL [14] | IC50 [16] [µM] | IC50 [17] [µM] | other results |
| --- | --- | --- | --- | --- | --- | --- |
| CC(Oc1cc(-n2cnc3ccc(OCC4CCN(C)CC4)cc32)sc1C(N)=O)c1ccccc1Cl (single isomer, unassigned) [GSK-571989A] | ≥ 172 | 1.1 | 0.021 | 0.034 | 0.006 | – |
| COc1ccc2ncn(-c3cc(O[C@H](C)c4ccccc4Cl)c(C(N)=O)s3)c2c1 [GSK-317314A] | 3 (≈ 1.28 µg/mL) | 0.035 | 0.005 | 0.321 | 0.001 | – |
